Where two headings read alike, the source gives them in different places.
What was measured:
[1] = Experimental: (§1) Plasma from 9 individual male fish (500 µL/individual) was pooled to yield 3 samples for PPCP analysis. […] Plasma from 6 individual carp (2.3–3.5 g) from each location was selected for PPCP analysis. […] Plasma samples were frozen (−80 °C) until analysis.
(§2) A total of 20 fish plasma samples from the pooled caged fish (7) and the wild fish (13) along with 12 water samples were selected for analysis. […] A full list of analytes is provided in Supplementary Information. Mass labelled^13C-, or deuterated surrogate internal standards were used for quantification of all analytes via the isotope dilution/surrogate standard quantitation method. Prior to extraction and/or clean-up procedures, aqueous samples were adjusted to pH 2.0, spiked with extraction surrogate standards, then adjusted to pH 4 using tetrasodium ethylenediamine-tetraacetate dihydrate. Plasma samples (2.3–2.5 g) were spiked with extraction surrogate standards, sonicated with 20 mL acetonitrile, then diluted with ultra-pure water to 200 mL. The extracts were cleaned up by solid phase extraction using Oasis HLB cartridges (Waters Ltd. Mississauga ON), filtered, and analyzed by liquid chromatography-electrospray ionization-tandem mass spectrometry (LC/ESI-MS/MS) in positive or negative ionization mode. The analysis of the complete list of analytes (SI Table S1) required a total of five instrumental runs.

in vivo = conditions: goldfish (Carassius auratus), in vivo
Text: Cages were visited weekly, and fish (13/cage) were fed during the visits (20 g/cage). All animal experiments were in accordance with CCAC guidance and approved by the GLLFAS-WSTD Animal Care Committee (Government of Canada). Further details on the caging and preparation of the fish and animal care protocols are provided in Simmons et al.[32]. […] A fourth site, Jordan Harbour (JH), a widening of 20 Mile Creek adjacent to Lake Ontario near Jordan ON, served as a reference site. Mass and fork length were measured and recorded. Plasma collection and storage is described in the SI. Plasma of caged goldfish was divided for proteome, metabolome and PPCP analysis. Due to limited volumes, pooled samples of plasma from 25 individual fish (50 µL/individual) was pooled to yield one sample from at each location for PPCP analysis.
as §2
(§3) Quality assurance steps included analysis of lab blanks for water and plasma along with matrix recovery spikes. […] Detection limits (DLs) were defined as lowest calibration level adjusted to the maximal sample size or 3 times the signal of the noise in the target channel converted to an equivalent sample, whichever was greater. […] Where analytes were detected in two or more samples of the same species or series of water samples, non-detect values were converted to ½ the DL value for reporting purposes.

[2] = for plasma concentration, CPM-C 01: Cootes carp 01, 2011, male
Experimental: as §1, §2, §3

[3] = human, ref Schulz et al.[56], cited from earlier work; for Therapeutic "normal" blood-plasma/serum concentration: converted from µg/mL
[4] = set-up: method as in US EPA Chemistry Dashboard; conditions: ref US EPA Chemistry Dashboard; cited from earlier work
[5] = Plasma bioaccumulation factor (BAFP), goldfish; assay type: in vivo, goldfish (Carassius auratus)
Experimental: Bioaccumulation factor (BAFP) was calculated as concentration in fish plasma (ng/g × 1000) divided by concentration in water (ng/L). Two widely used modeling approaches for predicting organic contaminant bioaccumulation were assessed: the BCF-BAF model for whole body BAFs[53] and the fish-plasma concentration calculation of Huggett et al.[35] modified by Berninger et al.[54]. The latter involves estimating an octanol-water partition coefficient (Kow) adjusted for fraction ionized (log D), using the pKa value to adjust log Kow[54] taking into account the pH of CPM waters. Further information on the calculation of log D, blood-water partitioning (PBW), and plasma concentrations (FPC) is given in the SI.

[6] = cited from earlier work; for whole fish concentration, salmon: ref Meador et al. 18
[7] = ref Meador et al. 18; cited from earlier work
[8] = plasma concentration, CPM1 caged
[9] = plasma concentration, CPM2 caged
[10] = plasma concentration, CPM3 caged
[11] = female, carp (Cyprinus carpio), in vivo
[12] = male, carp (Cyprinus carpio), in vivo
[13] = male, goldfish (Carassius auratus), in vivo
[14] = Jordan Harbour brown bullhead, wet weight
[15] = Cootes carp 2, Sep 27, 2011, male, wet weight
[16] = Cootes carp 10, Sep 28, 2011, female, wet weight
[17] = Cootes carp 13, Sep 28, 2011, female, wet weight
[18] = Cootes carp 20, 2011, male, wet weight
[19] = Cootes carp 36, Oct 3, 2011, female, wet weight
[20] = Jordan Harbour carp 75, Nov 7, 2011, female, wet weight

| SMILES | concentration at 21 days (in vivo; [8]) [ng/g] | concentration at 21 days (in vivo; [9]) [ng/g] | concentration at 21 days (in vivo; [10]) [ng/g] | concentration at 21 days (in vivo; plasma concentration, JH caged) [ng/g] | plasma concentration, CPM wild-01 [2, 13] [ng/g] | plasma concentration, CPM wild-02 [2, 13] [ng/g] | plasma concentration, CPM wild-03 [2, 13] [ng/g] | Therapeutic "normal" blood-plasma/serum concentration [3] [ng/mL] | log Kow [4] | whole fish concentration, salmon [6] | whole fish concentration, sculpin [7] | plasma concentration, JH-BB [1, 14] [ng/g] | plasma concentration, CPM-C 01 ([2]; wet weight) [ng/g] | plasma concentration, CPM-C 2 [2, 15] [ng/g] | plasma concentration, CPM-C 10 [2, 16] [ng/g] | plasma concentration, CPM-C 13 [2, 17] [ng/g] | plasma concentration, CPM-C 20 [2, 18] [ng/g] | plasma concentration, CPM-C 36 [2, 19] [ng/g] | Carp plasma concentration, this study (range) ([2]; Table S7) [ng/g] | plasma concentration, JH-C 75 [2, 20] [ng/g] | other results |
| --- | --- | --- | --- | --- | --- | --- | --- | --- | --- | --- | --- | --- | --- | --- | --- | --- | --- | --- | --- | --- | --- |
| C[C@]12CCC(=O)C=C1CC[C@@H]1[C@@H]2[C@@H](O)C[C@@]2(C)[C@H]1CC[C@]2(O)C(=O)CO [Hydrocortisone] | 100 | 107 | 113 | 92.4 | 129 | 134 | 118 | – | – | – | – | – | – | – | – | – | – | – | – | – | plasma concentration, JH-BB ([1]; Brown Bullhead (Ameiurus nebulosus), in vivo): 187 ng/g; plasma concentration, CPM-C 10 [2, 11]: 764 ng/g; plasma concentration, CPM-C 13 [2, 11]: 1010 ng/g; plasma concentration, CPM-C 36 [2, 11]: 875 ng/g; plasma concentration, JH-C 73 [2, 11]: 456 ng/g; plasma concentration, JH-C 75 [2, 11]: 1440 ng/g; plasma concentration, CPM-C 2 [2, 12]: 1010 ng/g; plasma concentration, CPM-C 20 [2, 12]: 210 ng/g; plasma concentration, JH-C 54 [2, 12]: 232 ng/g; plasma concentration, JH-C 74 [2, 12]: 242 ng/g; plasma concentration, JH-C 78 [2, 12]: 522 ng/g |
| CN(C)CCCC1(c2ccc(F)cc2)OCc2cc(C#N)ccc21 (centres unmarked) [Citalopram] | 0.145 | 0.163 | 0.041 | < 0.08 | 0.0392 | 0.127 | 0.13 | 50 to 110 | 3.74 | – | – | – | – | – | – | – | – | – | – | – | concentration at 21 days (in vivo; caged goldfish plasma, range of concentrations): 0.04 to 0.13 ng/g; BAFP, CPM1 goldfish caged ([5]; CPM1): 4 L/kg; BAFP, CPM2 goldfish caged ([5]; CPM2, water sample of August 2012): 6 L/kg; BAFP, CPM3 goldfish caged ([5]; CPM3): 52 L/kg; BAFP at CPM3, wild goldfish, average ([5]; conc in fish plasma/conc in water): 44 L/kg; BAFP at CPM3, wild goldfish, range ([5]; range based on range of plasma concentrations): 18 to 58 L/kg; plasma concentration, carp, this study (mean) ([2]; in vivo): < mdl; plasma concentration, goldfish, this study (mean) [2, 13]: 0.10 ng/g wet weight or ng/mL for plasma; wild goldfish plasma, range of concentrations [2, 13]: 0.04 to 0.16 ng/g |
| CN1[C@@H]2CC[C@H]1C[C@@H](OC(c1ccccc1)c1ccccc1)C2 [Benztropine] | – | – | – | – | – | – | – | 10 to 180 | 3.85 | 0.2 ng/g wet weight or ng/mL for plasma | < mdl | – | – | – | – | – | – | – | – | – | toxic dose (toxic blood-plasma/serum concentration) [3]: 50 ng/mL; Salmon (whole body) concentration ([6]; Table S7, ref Meador et al. (2016)): 0.2 ng/g |
| NCCC(Oc1ccc(C(F)(F)F)cc1)c1ccccc1 (centres unmarked) [Norfluoxetine] | – | – | – | – | – | – | – | – | – | – | – | < 0.57 | 0.338 | 0.216 | 0.227 | 0.234 | 0.179 | 0.215 | 0.18 to 0.34 | – | concentration at 21 days (in vivo; plasma concentration, CPM1 caged, CPM1, 07-2014, pooled plasma, wet weight): 0.879 ng/g; concentration at 21 days (in vivo; plasma concentration, CPM2 caged, CPM2, 07-2014, pooled plasma, wet weight): 0.58 ng/g; concentration at 21 days (in vivo; plasma concentration, CPM3 caged, CPM3, 07-2014, pooled plasma, wet weight): 0.168 ng/g; concentration at 21 days (in vivo; plasma concentration, JH caged, Jordan Harbour reference site, 07-2014, pooled plasma, wet weight): < 0.413 ng/g; Goldfish plasma concentration, this study (range) ([2]; Table S7): 0.17 to 1.1 ng/g; plasma concentration, CPM wild-01 ([2]; wild goldfish sample 01, 2012, wet weight): 0.300 ng/g; plasma concentration, CPM wild-02 ([2]; wild goldfish sample 02, 2012, wet weight): 0.654 ng/g; plasma concentration, CPM wild-03 ([2]; wild goldfish sample 03, 2012, wet weight): 1.1 ng/g |
| CC(C(=O)O)c1ccc(CC(C)(C)O)cc1 (centres unmarked) [2-Hydroxy-ibuprofen] | – | – | – | – | – | – | – | – | – | – | – | < 30.4 | < 16.9 | < 23 | < 24.2 | < 24.9 | < 17.2 | < 22.9 | – | < 24.1 | plasma concentration, JH-C 54 ([2]; Jordan Harbour carp 54, Nov 7, 2011, male, wet weight): < 16.9 ng/g; plasma concentration, JH-C 73 ([2]; Jordan Harbour carp 73, Nov 7, 2011, female, wet weight): < 16.5 ng/g; plasma concentration, JH-C 74 ([2]; Jordan Harbour carp 74, Nov 7, 2011, male, wet weight): < 17 ng/g; plasma concentration, JH-C 78 ([2]; Jordan Harbour carp 78, Nov 7, 2011, male, wet weight): < 38.5 ng/g; plasma concentration, JH-C 82 ([2]; Jordan Harbour carp 82, Nov 7, 2011, female, wet weight): 17 ng/g |
| CCCCC(=O)N(Cc1ccc(-c2ccccc2-c2nnn[nH]2)cc1)[C@H](C(=O)O)C(C)C [Valsartan] | – | – | – | – | – | – | – | ~800 to 6000 | 3.07 | < mdl | < mdl | – | 0.422 | 1.23 | 0.605 | 0.625 | 0.431 | 0.570 | 0.42 to 1.23 | < 1.2 | Cootes carp plasma, range of concentrations ([2]; Cootes Paradise Marsh, range): 0.42 to 1.23 ng/g; plasma concentration, carp, this study (mean) ([2]; Table S8): 0.65 ng/g wet weight or ng/mL for plasma; plasma concentration, goldfish, this study (mean) ([2]; Table S8): < mdl |
